{
  "source": "paper PMC3265452",
  "about": "(PLoS Neglected Tropical Diseases, 2012)",
  "note": "Counter-ions that a name gives are not always drawn.",
  "data": [
    {"biological_target": "AaDOP2 (Aedes aegypti, UniProt H6D5H2)", "sequence (H6D5H2 1-476)": "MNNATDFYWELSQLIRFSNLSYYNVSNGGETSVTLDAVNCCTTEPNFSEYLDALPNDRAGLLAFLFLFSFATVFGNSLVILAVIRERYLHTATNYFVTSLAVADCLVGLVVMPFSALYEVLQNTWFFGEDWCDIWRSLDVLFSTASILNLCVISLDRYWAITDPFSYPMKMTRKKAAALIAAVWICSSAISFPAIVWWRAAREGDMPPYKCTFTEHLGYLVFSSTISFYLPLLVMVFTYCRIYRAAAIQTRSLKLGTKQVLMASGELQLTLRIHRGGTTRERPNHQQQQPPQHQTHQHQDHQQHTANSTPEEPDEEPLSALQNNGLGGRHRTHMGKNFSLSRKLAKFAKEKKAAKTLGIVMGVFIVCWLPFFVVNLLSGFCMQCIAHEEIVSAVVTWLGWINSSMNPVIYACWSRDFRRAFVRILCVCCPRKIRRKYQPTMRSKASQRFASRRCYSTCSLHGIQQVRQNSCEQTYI", "assay": "AaDOP2 antagonist screen of the LOPAC1280 library (HEK-CRELuc-Aadop2 cells, luminescence)", "format": "cell-based", "conditions": "not given", "values": [
      {"smiles": "C[C@]12CCC(=O)C=C1CC[C@@H]1[C@@H]2CC[C@]2(C)C(=O)CC[C@@H]12", "note": "[Compound 108, 4-Androstene-3,17-dione]", "Compound effect (percent receptor signaling in presence of test compound, relative lux units relative to the SCH23390 control)": 115},
      {"smiles": "COc1cc(NS(C)(=O)=O)ccc1Nc1c2ccccc2nc2ccccc12", "note": "[Compound 112, Amsacrine hydrochloride]", "Compound effect (percent receptor signaling in presence of test compound, relative lux units relative to the SCH23390 control)": 97},
      {"smiles": "CN(Cc1cnc2nc(N)nc(N)c2n1)c1ccc(C(=O)N[C@@H](CCC(=O)O)C(=O)O)cc1", "note": "[Compound 114, (-)Amethopterin]", "Compound effect (percent receptor signaling in presence of test compound, relative lux units relative to the SCH23390 control)": 116},
      {"smiles": "COc1ccc(C(=O)N2CCCC2=O)cc1", "note": "[Compound 116, Aniracetam]", "Compound effect (percent receptor signaling in presence of test compound, relative lux units relative to the SCH23390 control)": 101},
      {"smiles": "CCn1c(=O)c2[nH]c(-c3ccccc3)nc2n(CC)c1=O", "note": "[Compound 117, 1,3-Diethyl-8-phenylxanthine]", "Compound effect (percent receptor signaling in presence of test compound, relative lux units relative to the SCH23390 control)": 105},
      {"smiles": "Cn1c(=O)c2[nH]c(-c3ccc(S(=O)(=O)O)cc3)nc2n(C)c1=O", "note": "[Compound 118, 8-(p-Sulfophenyl)theophylline]", "Compound effect (percent receptor signaling in presence of test compound, relative lux units relative to the SCH23390 control)": 98},
      {"smiles": "CCCn1c(=O)c2[nH]c(-c3ccc(S(=O)(=O)O)cc3)nc2n(CCC)c1=O", "note": "[Compound 119, 1,3-Dipropyl-8-p-sulfophenylxanthine]", "Compound effect (percent receptor signaling in presence of test compound, relative lux units relative to the SCH23390 control)": 91},
      {"smiles": "NCCNC(=O)Cc1ccc(NC(=O)Cc2ccc(Nc3ncnc4c3ncn4[C@@H]3O[C@H](CO)[C@@H](O)[C@H]3O)cc2)cc1", "note": "[Compound 122, Adenosine amine congener]", "Compound effect (percent receptor signaling in presence of test compound, relative lux units relative to the SCH23390 control)": 105},
      {"smiles": "CN1[C@@H]2CC[C@H]1C[C@@H](OC(c1ccccc1)c1ccccc1N)C2", "note": "(stereo partly drawn) [Compound 125, Aminobenztropine]", "Compound effect (percent receptor signaling in presence of test compound, relative lux units relative to the SCH23390 control)": 30},
      {"smiles": "C#CCOC(=O)C1=CCCN(C)C1", "note": "[Compound 126, Arecaidine propargyl ester hydrobromide]", "Compound effect (percent receptor signaling in presence of test compound, relative lux units relative to the SCH23390 control)": 85},
      {"smiles": "C=CCn1c(=O)c2c(nc(-c3ccc(S(=O)(=O)O)cc3)n2C)n(C)c1=O", "note": "[Compound 129, 1-Allyl-3,7-dimethyl-8-p-sulfophenylxanthine]", "Compound effect (percent receptor signaling in presence of test compound, relative lux units relative to the SCH23390 control)": 100},
      {"smiles": "Cl.NC1(C(=O)O)CCCCC1", "note": "[Compound 132, 1-Amino-1-cyclohexanecarboxylic acid hydrochloride]", "Compound effect (percent receptor signaling in presence of test compound, relative lux units relative to the SCH23390 control)": 110},
      {"smiles": "CC(N)C(=O)OC(C)(C)Cc1ccc(Cl)cc1", "note": "(stereo not drawn) [Compound 133, Alaproclate hydrochloride]", "Compound effect (percent receptor signaling in presence of test compound, relative lux units relative to the SCH23390 control)": 110},
      {"smiles": "CCN(CC)CC.Nc1ncnc2c1ncn2C1OC2COP(O)(=S)O[C@@H]2[C@@H]1O", "note": "(stereo partly drawn) [Compound 134, Rp-cAMPS triethylamine]", "Compound effect (percent receptor signaling in presence of test compound, relative lux units relative to the SCH23390 control)": 67},
      {"smiles": "N[C@H](CCCCCP(=O)(O)O)C(=O)O", "note": "[Compound 136, D(-)-2-Amino-7-phosphonoheptanoic acid]", "Compound effect (percent receptor signaling in presence of test compound, relative lux units relative to the SCH23390 control)": 102},
      {"smiles": "CC(=O)c1ccc(S(=O)(=O)NC(=O)NC2CCCCC2)cc1", "note": "[Compound 137, Acetohexamide]", "Compound effect (percent receptor signaling in presence of test compound, relative lux units relative to the SCH23390 control)": 115},
      {"smiles": "CP(=O)(O)CCCN.Cl", "note": "[Compound 138, SKF 97541 hydrochloride]", "Compound effect (percent receptor signaling in presence of test compound, relative lux units relative to the SCH23390 control)": 101},
      {"smiles": "NC/C=C\\C(=O)O", "note": "[Compound 139, cis-4-Aminocrotonic acid]", "Compound effect (percent receptor signaling in presence of test compound, relative lux units relative to the SCH23390 control)": 95},
      {"smiles": "Nc1ccc(CCNc2ncnc3c2ncn3[C@@H]2O[C@H](CO)[C@@H](O)[C@H]2O)cc1", "note": "[Compound 140, N6-2-(4-Aminophenyl)ethyladenosine]", "Compound effect (percent receptor signaling in presence of test compound, relative lux units relative to the SCH23390 control)": 97},
      {"smiles": "CC1=C[C@@H]2c3cccc4[nH]cc(c34)C[C@H]2N(C)C1", "note": "[Compound 141, Agroclavine]", "Compound effect (percent receptor signaling in presence of test compound, relative lux units relative to the SCH23390 control)": 98},
      {"smiles": "O=c1nc2[nH]c3ccccc3nc-2c(=O)[nH]1", "note": "[Compound 144, Alloxazine]", "Compound effect (percent receptor signaling in presence of test compound, relative lux units relative to the SCH23390 control)": 104},
      {"smiles": "O=C(O)[C@@H]1C[C@H](C(=O)O)N1", "note": "[Compound 145, cis-Azetidine-2,4-dicarboxylic acid]", "Compound effect (percent receptor signaling in presence of test compound, relative lux units relative to the SCH23390 control)": 112},
      {"smiles": "NC1(C(=O)O)CCc2cc(C(=O)O)ccc21", "note": "(stereo not drawn) [Compound 148, AIDA]", "Compound effect (percent receptor signaling in presence of test compound, relative lux units relative to the SCH23390 control)": 95},
      {"smiles": "CC(C)(C)c1o[nH]c(=O)c1CC(N)C(=O)O", "note": "(stereo not drawn) [Compound 150, ATPA]", "Compound effect (percent receptor signaling in presence of test compound, relative lux units relative to the SCH23390 control)": 101},
      {"smiles": "CC(=O)C(C)=NO", "note": "[Compound 153, 2,3-Butanedione monoxime]", "Compound effect (percent receptor signaling in presence of test compound, relative lux units relative to the SCH23390 control)": 131},
      {"smiles": "CC[C@H](NC(=O)c1c(C)c(-c2ccccc2)nc2ccccc12)c1ccccc1", "note": "[Compound 154, SB 222200]", "Compound effect (percent receptor signaling in presence of test compound, relative lux units relative to the SCH23390 control)": 92},
      {"smiles": "COc1ccc2c(c1)c(CC(=O)O)c(C)n2C(=O)c1ccccc1", "note": "[Compound 155, 1-benzoyl-5-methoxy-2-methylindole-3-acetic acid]", "Compound effect (percent receptor signaling in presence of test compound, relative lux units relative to the SCH23390 control)": 105},
      {"smiles": "O=C1C=CC(=O)C=C1", "note": "[Compound 156, p-Benzoquinone]", "Compound effect (percent receptor signaling in presence of test compound, relative lux units relative to the SCH23390 control)": 96},
      {"smiles": "O=S(=O)(NCCNC/C=C/c1ccc(Br)cc1)c1cccc2cnccc12", "note": "[Compound 158, H-89]", "Compound effect (percent receptor signaling in presence of test compound, relative lux units relative to the SCH23390 control)": 46},
      {"smiles": "O=C1O/C(=C/Br)CCC1c1cccc2ccccc12", "note": "(stereo not drawn) [Compound 159, Bromoenol lactone]", "Compound effect (percent receptor signaling in presence of test compound, relative lux units relative to the SCH23390 control)": 103},
      {"smiles": "NC(=O)c1ccccc1", "note": "[Compound 160, Benzamide]", "Compound effect (percent receptor signaling in presence of test compound, relative lux units relative to the SCH23390 control)": 100},
      {"smiles": "O=[N+]([O-])c1cccc2c(Br)n[nH]c12", "note": "[Compound 161, 3-Bromo-7-nitroindazole]", "Compound effect (percent receptor signaling in presence of test compound, relative lux units relative to the SCH23390 control)": 83},
      {"smiles": "CC(C)C[C@H]1C(=O)N2CCC[C@H]2[C@]2(O)O[C@](NC(=O)[C@@H]3C=C4c5cccc6[nH]c(Br)c(c56)C[C@H]4N(C)C3)(C(C)C)C(=O)N12.CS(=O)(=O)O", "note": "[Compound 162, (+)-Bromocriptine methanesulfonate]", "Compound effect (percent receptor signaling in presence of test compound, relative lux units relative to the SCH23390 control)": 37},
      {"smiles": "Nc1nc(OCc2ccccc2)c2nc[nH]c2n1", "note": "[Compound 163, O6-benzylguanine]", "Compound effect (percent receptor signaling in presence of test compound, relative lux units relative to the SCH23390 control)": 80},
      {"smiles": "NC(=NCc1ccccc1)NC(=O)c1nc(Cl)c(N)nc1N", "note": "[Compound 166, Benzamil hydrochloride]", "Compound effect (percent receptor signaling in presence of test compound, relative lux units relative to the SCH23390 control)": 60},
      {"smiles": "CCCCS(=N)(=O)CC[C@H](N)C(=O)O", "note": "(stereo partly drawn) [Compound 167, L-Buthionine-sulfoximine]", "Compound effect (percent receptor signaling in presence of test compound, relative lux units relative to the SCH23390 control)": 81},
      {"smiles": "C[N+](C)(C)CC(=O)O", "note": "[Compound 170, Betaine hydrochloride]", "Compound effect (percent receptor signaling in presence of test compound, relative lux units relative to the SCH23390 control)": 86}
    ]},
    {"biological_target": "AaDOP2 (Aedes aegypti, UniProt H6D5H2)", "assay": "AaDOP2 antagonist screen of the LOPAC1280 library (HEK-CRELuc-Aadop2 cells, luminescence)", "format": "cell-based", "conditions": "10 µM compound, 300 nM dopamine, 2 hr; hit = compound effect <20", "units": {"Compound effect (percent receptor signaling in presence of test compound, relative lux units relative to the SCH23390 control)": "%"}, "values": [
      {"smiles": "Cl.c1ccc(CN(CC2=NCCN2)c2ccccc2)cc1", "note": "[Compound 115, Antozoline hydrochloride]", "Compound effect (percent receptor signaling in presence of test compound, relative lux units relative to the SCH23390 control)": 115},
      {"smiles": "CNC(=O)[C@H]1O[C@@H](n2cnc3c(N)ncnc32)[C@H](O)[C@@H]1O", "note": "[Compound 121, 5'-N-Methyl carboxamidoadenosine]", "Compound effect (percent receptor signaling in presence of test compound, relative lux units relative to the SCH23390 control)": 114},
      {"smiles": "Cl.Cn1ccc2cc(NC(=O)Nc3cccnc3)ccc21", "note": "[Compound 135, SB 200646 hydrochloride]", "Compound effect (percent receptor signaling in presence of test compound, relative lux units relative to the SCH23390 control)": 106},
      {"smiles": "C#CC(N)CCC(=O)O", "note": "(stereo not drawn) [Compound 142, gamma-Acetylinic GABA]", "Compound effect (percent receptor signaling in presence of test compound, relative lux units relative to the SCH23390 control)": 104},
      {"smiles": "CNC(=O)[C@H]1O[C@@H](n2cnc3c(NCc4ccc(N)cc4)ncnc32)[C@H](O)[C@@H]1O", "note": "[Compound 143, AB-MECA]", "Compound effect (percent receptor signaling in presence of test compound, relative lux units relative to the SCH23390 control)": 100},
      {"smiles": "CC(C)C1C2CCC(C2)C1N.Cl", "note": "(stereo not drawn) [Compound 147, AGN 192403 hydrochloride]", "Compound effect (percent receptor signaling in presence of test compound, relative lux units relative to the SCH23390 control)": 109},
      {"smiles": "Cl.NC[C@@H]1O[C@H](C23CC4CC(CC(C4)C2)C3)Cc2c1ccc(O)c2O", "note": "[Compound 149, A-77636 hydrochloride]", "Compound effect (percent receptor signaling in presence of test compound, relative lux units relative to the SCH23390 control)": 113},
      {"smiles": "CCN(CC)c1ncnc2c1ncn2[C@@H]1O[C@H](COP(=O)([O-])OP(=O)([O-])C(Br)(Br)P(=O)([O-])O)[C@@H](O)[C@H]1O.[Na+].[Na+].[Na+]", "note": "[Compound 151, ARL 67156 trisodium salt]", "Compound effect (percent receptor signaling in presence of test compound, relative lux units relative to the SCH23390 control)": 115},
      {"smiles": "C[C@H]1C[C@H]2[C@@H]3CCC4=CC(=O)C=C[C@]4(C)[C@@]3(Cl)[C@@H](O)C[C@]2(C)[C@@]1(O)C(=O)CO", "note": "[Compound 152, Beclomethasone]", "Compound effect (percent receptor signaling in presence of test compound, relative lux units relative to the SCH23390 control)": 97},
      {"smiles": "Nc1nc2c(nc(Br)n2[C@@H]2O[C@@H]3COP(=O)([O-])O[C@H]3[C@H]2O)c(=O)[nH]1.[Na+]", "note": "[Compound 157, 8-Bromo-cGMP sodium]", "Compound effect (percent receptor signaling in presence of test compound, relative lux units relative to the SCH23390 control)": 117},
      {"smiles": "CC(=O)NBr", "note": "[Compound 164, N-Bromoacetamide]", "Compound effect (percent receptor signaling in presence of test compound, relative lux units relative to the SCH23390 control)": 104}
    ]}
  ]
}
